Data as given in ChEMBL document CHEMBL5465560, “Selectivity Literature for EUbOPEN Chemogenomic Library” (2024).
One block for each compound: values may come before it.

Legend:
[1] = biological target: Casein kinase I isoform gamma-2 (Homo sapiens) (UniProt P78368); assay: Selectivity interaction (SelectScreen profiling (Invitrogen)) EUB0000607a CSNK1G2; conditions: at 2 µM
[2] = biological target: Cyclin-dependent kinase 5 (Homo sapiens, UniProt Q00535); assay: Selectivity interaction (KinomeScan (DiscoverX)) EUB0000045b CDK5
[3] = biological target: Macrophage colony-stimulating factor 1 receptor (Homo sapiens) (UniProt P07333); assay: Selectivity interaction (Upstate Kinase Profiler service (Millipore)) EUB0000056c CSF1R; conditions: at 1 µM
[4] = biological target: Glycogen synthase kinase-3 beta (Homo sapiens, UniProt P49841); conditions: at 10 µM
[5] = biological target: T1, NUAK family SNF1-like kinase 2 (Homo sapiens) (UniProt Q9H093); assay: Selectivity interaction (ProQinase) EUB0000171b NUAK2
T1 sequence (whole entry): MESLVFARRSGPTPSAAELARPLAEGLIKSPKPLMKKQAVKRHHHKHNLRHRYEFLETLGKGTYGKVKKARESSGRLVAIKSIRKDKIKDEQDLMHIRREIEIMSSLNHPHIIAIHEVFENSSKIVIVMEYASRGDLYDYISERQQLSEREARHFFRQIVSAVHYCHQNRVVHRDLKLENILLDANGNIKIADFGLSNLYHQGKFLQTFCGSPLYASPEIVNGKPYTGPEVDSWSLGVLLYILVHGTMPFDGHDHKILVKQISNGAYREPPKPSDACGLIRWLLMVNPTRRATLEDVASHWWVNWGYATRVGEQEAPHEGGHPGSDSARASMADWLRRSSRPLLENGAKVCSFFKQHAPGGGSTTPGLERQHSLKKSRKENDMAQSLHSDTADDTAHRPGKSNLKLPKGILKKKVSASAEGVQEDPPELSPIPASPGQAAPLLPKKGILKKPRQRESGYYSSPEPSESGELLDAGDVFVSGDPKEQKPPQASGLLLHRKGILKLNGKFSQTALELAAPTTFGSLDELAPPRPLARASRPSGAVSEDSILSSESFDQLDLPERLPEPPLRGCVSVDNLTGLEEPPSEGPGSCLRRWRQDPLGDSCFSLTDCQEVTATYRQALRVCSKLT

[6] = biological target: T2, Tyrosine-protein kinase Tec (Homo sapiens) (UniProt P42680); assay: Selectivity interaction (KinomeScan (DiscoverX)) EUB0000092b TEC; conditions: at 10 µM
T2 sequence (whole entry): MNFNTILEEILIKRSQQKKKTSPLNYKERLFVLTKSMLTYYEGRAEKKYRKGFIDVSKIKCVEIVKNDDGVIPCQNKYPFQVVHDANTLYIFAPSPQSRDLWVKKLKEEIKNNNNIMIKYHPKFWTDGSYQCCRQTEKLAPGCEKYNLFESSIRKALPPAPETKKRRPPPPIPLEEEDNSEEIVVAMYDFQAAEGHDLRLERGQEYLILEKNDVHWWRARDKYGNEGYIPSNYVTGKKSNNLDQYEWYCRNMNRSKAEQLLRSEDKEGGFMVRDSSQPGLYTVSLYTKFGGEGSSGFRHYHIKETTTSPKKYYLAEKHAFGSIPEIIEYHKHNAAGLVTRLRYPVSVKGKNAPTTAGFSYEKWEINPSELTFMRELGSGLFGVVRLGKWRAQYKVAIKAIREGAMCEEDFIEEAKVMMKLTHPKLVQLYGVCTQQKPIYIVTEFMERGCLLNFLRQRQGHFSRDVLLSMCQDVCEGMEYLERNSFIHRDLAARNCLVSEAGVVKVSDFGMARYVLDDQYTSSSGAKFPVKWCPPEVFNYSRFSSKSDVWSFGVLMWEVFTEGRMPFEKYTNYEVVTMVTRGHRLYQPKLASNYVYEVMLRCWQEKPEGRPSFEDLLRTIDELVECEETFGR

[7] = biological target: Dual specificity protein kinase CLK1 (Homo sapiens, UniProt P49759); assay: Selectivity interaction (Enzymatic assay) EUB0001550a CLK1
[8] = biological target: T3, Mitogen-activated protein kinase kinase kinase kinase 2 (Homo sapiens) (UniProt Q12851); assay: Selectivity interaction (Kinase panel (Z-LYTE Assay)) EUB0001632a MAP4K2; conditions: at 10 µM
T3 sequence (whole entry): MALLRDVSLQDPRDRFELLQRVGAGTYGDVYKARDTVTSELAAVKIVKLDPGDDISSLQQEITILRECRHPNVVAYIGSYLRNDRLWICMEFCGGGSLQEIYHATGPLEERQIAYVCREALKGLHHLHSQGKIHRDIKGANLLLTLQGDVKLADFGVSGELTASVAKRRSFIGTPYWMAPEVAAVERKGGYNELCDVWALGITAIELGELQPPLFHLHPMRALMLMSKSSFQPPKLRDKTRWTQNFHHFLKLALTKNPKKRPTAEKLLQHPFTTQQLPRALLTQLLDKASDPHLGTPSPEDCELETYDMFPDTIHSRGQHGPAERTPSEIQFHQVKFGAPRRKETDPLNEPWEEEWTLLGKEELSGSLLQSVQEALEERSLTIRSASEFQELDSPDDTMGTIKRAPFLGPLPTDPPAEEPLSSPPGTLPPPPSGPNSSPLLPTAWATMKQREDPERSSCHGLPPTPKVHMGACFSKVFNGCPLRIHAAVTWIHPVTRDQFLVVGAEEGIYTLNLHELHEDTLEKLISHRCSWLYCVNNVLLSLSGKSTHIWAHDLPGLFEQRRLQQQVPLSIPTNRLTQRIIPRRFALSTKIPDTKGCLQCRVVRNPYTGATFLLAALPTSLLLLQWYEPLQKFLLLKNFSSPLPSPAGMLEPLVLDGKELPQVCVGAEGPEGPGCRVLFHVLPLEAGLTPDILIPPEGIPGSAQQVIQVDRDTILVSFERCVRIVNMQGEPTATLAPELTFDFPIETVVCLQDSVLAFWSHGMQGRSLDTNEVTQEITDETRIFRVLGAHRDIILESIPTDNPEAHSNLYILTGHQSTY

Chain of Cyclin-dependent kinase 5 (Q00535 whole entry, looked up): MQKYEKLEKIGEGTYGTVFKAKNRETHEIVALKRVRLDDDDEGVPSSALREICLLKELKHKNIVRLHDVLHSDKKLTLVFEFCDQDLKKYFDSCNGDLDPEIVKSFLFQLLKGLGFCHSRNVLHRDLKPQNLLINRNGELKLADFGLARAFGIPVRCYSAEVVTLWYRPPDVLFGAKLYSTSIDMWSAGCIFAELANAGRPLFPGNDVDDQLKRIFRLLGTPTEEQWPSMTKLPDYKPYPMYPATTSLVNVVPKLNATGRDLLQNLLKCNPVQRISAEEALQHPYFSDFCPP
Chain of Macrophage colony-stimulating factor 1 receptor (Homo sapiens) (P07333 whole entry): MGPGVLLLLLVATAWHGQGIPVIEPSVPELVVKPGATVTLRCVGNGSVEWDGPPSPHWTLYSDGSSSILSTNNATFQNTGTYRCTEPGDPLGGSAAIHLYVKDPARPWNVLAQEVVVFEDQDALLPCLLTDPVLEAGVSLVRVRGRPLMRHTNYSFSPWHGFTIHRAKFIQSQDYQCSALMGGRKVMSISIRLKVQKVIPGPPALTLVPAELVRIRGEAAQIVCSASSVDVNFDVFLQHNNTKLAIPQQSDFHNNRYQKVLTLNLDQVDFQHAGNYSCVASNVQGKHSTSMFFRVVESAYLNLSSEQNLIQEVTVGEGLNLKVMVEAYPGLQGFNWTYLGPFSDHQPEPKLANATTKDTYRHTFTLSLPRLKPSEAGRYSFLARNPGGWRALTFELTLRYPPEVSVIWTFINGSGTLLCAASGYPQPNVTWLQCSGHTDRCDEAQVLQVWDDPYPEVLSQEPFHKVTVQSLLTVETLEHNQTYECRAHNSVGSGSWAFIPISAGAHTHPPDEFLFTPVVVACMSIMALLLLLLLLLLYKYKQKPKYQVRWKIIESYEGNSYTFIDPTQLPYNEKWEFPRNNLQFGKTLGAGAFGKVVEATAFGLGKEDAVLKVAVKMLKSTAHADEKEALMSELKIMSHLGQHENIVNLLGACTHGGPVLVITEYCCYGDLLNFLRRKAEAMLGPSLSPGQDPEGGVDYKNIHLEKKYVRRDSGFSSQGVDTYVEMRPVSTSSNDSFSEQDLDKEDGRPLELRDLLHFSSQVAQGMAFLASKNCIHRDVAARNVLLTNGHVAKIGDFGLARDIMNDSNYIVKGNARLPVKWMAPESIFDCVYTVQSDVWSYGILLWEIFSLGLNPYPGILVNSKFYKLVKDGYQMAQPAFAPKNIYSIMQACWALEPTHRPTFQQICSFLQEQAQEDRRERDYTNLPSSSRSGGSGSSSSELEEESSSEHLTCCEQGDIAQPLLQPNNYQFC
Chain of Casein kinase I isoform gamma-2 (Homo sapiens) (P78368 whole entry, looked up, canonical isoform): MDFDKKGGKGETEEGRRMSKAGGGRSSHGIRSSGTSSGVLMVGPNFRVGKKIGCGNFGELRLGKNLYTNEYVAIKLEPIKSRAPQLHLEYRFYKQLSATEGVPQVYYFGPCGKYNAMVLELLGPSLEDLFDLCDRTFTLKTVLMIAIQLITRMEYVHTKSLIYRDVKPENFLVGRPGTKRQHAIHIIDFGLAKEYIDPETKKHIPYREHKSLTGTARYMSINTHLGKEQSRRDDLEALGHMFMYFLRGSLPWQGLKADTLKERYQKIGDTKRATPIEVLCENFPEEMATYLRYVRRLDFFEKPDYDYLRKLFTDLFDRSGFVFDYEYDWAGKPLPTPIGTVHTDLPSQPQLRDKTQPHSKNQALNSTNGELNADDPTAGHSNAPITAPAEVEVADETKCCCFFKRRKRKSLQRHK
Chain of Glycogen synthase kinase-3 beta (P49841 whole entry, looked up): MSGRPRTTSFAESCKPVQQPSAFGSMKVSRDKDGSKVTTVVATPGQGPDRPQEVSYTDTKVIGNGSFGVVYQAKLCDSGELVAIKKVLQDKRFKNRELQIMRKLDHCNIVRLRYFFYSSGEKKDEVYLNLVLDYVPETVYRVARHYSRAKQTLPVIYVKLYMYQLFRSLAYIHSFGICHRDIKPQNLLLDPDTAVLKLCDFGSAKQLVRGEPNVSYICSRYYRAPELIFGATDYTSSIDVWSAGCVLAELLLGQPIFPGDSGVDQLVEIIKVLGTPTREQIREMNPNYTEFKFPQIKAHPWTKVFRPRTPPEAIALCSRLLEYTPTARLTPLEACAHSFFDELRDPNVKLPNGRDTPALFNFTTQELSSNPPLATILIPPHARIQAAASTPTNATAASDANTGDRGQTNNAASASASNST
Chain of Dual specificity protein kinase CLK1 (P49759 whole entry): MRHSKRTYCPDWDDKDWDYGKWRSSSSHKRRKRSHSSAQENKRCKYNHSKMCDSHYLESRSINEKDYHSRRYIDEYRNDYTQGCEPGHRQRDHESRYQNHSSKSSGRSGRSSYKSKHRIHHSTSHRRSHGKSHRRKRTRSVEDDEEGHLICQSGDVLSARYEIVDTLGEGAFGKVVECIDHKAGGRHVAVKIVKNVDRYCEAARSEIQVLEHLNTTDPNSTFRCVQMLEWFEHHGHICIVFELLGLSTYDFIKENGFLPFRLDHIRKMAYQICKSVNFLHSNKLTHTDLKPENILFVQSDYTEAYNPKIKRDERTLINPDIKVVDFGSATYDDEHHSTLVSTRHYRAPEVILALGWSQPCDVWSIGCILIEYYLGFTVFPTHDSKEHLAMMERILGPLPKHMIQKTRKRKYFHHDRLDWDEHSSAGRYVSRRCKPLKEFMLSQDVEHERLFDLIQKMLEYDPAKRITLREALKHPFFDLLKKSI

SMILES: CNC(=O)Nc1ccc(-c2nc(N3CC4CCC(C3)O4)c3cnn(C4CCC5(CC4)OCCO5)c3n2)cc1
% of inhibition [1]: -6%

SMILES: C=CC(=O)Nc1cc(-n2c(=O)ccc3cnc4ccc(-c5ccc(NS(C)(=O)=O)cc5)cc4c32)ccc1C
% of control ([2]; at 1 µM): 88%
% of control ([2]; at 10 µM): 100%

SMILES: Cc1ccc(-c2ccc3c(ccc4sc5c(c43)NC[C@@H](C)NC5=O)n2)cn1
% of inhibition [3]: 13%

SMILES: Cc1cc([C@@H](C)Nc2ccccc2C(=O)O)c2nc(N3CCOCC3)cc(=O)n2c1 [AZD-6482]
% of control [4]: 100%

SMILES: CCC(=O)N1CCN(c2ccc(-n3c(=O)ccc4cnc5ccc(-c6cnc7ccccc7c6)cc5c43)cc2C(F)(F)F)CC1
% of control [6]: 99%

Further lines, results first:

% of control ([5]; at 1 µM): 99%
% of control ([5]; at 5 µM): 87%
SMILES: C=CC(=O)Nc1cccc(C(=O)Nc2ccc(Nc3cc(-c4[nH]c(SC)nc4C)ccn3)cc2)c1

IC50 [7]: 420 nM
SMILES: CN(C)CC#Cc1ccc2[nH]c3c(c2c1)-c1nc(N)ncc1CCC3

% of control [8]: -4.87%
SMILES: Cn1cc(-n2cnc3c(NCc4nc5cc(Cl)c(Cl)cc5[nH]4)nc(N4CCOCC4)nc32)cn1
